According to PubChem BioAssay AID1845209 (Molecular Pharmacology Branch, DTP, NCI, 2023):
“And” between values parts separate entries of the source, which are not always exact repeats. Equal values may be shown once. The source made the active and inactive calls. The calls were made as follows: active = viability on the fitted dose curve at most 10% of control; inactive = the rest.

Test system: NCI-H211 tumor spheroids, viability percent test/control
Assay: Anticancer human tumor NCI-H211 cell line growth inhibition;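 as to IC50: spheroids exposed to agents for seven days before readout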;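 as to viability, T/C: spheroids exposed to agents for seven days before readout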
Conditions: spheroids with HUVEC and MSC; for viability, T/C: stronger effect = lower value
Description: Multicellular complex tumor spheroid response to DNA repair inhibitors in combination with DNA-damaging drugs
This study explores the anticancer activities of DNA-damaging drugs and inhibitors of DNA damage repair, both as single agents and in combinations. Complex tumor spheroids comprised of malignant cells, endothelial cells and mesenchymal stem cells served as an in vitro model for human solid tumors. This model system incorporates physiologically relevant features and patient-derived or established malignant cell lines with clinically relevant genetic alterations from many tumor types. Twenty-six patient-derived or established malignant cell lines were evaluated representing sarcoma, melanoma, small cell lung cancer (SCLC), non-small cell lung cancer (NSCLC), as well as bladder, ovarian and pancreatic cancers. The concentration ranges selected for each drug and investigational agent were based upon clinically achievable concentrations if the clinical Cmax of the agent was known.
Compounds. The drugs and compounds olaparib (NSC753686), talazoparib (NSC767125), berzosertib (NSC777718), elimusertib (NSC800525), nedisertib (NSC802822), VX-984 (NSC792969), AZD-1390 (NSC803789), temozolomide (NSC362856), topotecan (NSC609699), trabectedin (NSC813783), staurosporine (NSC755774), and gemcitabine (NSC613327) were obtained from the National Cancer Institute (NCI) Developmental Therapeutics Program Chemical Repository. The FDA-approved anticancer drug set is available from the Developmental Therapeutics Program at https://dtp.cancer.gov/organization/dscb/obtaining/available_plates.htm. […] The stock solutions were prepared in dimethyl sulfoxide (DMSO, Sigma-Aldrich, St. Louis, MO, cat. D2650) at 400-fold the tested concentration and stored at -70 degrees C. Prior to their use, the stock solutions were diluted in fresh medium and the final DMSO concentration in the assay was 0.25% (v/v). All drugs and investigational agents were tested over a range starting from a high concentration at or near the clinical Cmax and decreasing in half-log increments. If the clinical Cmax for an agent had not been determined, the highest concentration tested was 10 microM.
Cell Lines. The patient-derived cancer cell (PDC) lines: 156681-154-R-J1-PDC, 283228-195-R-J1-PDC, 287954-098-R-J1-PDC, 292921-168-R-J2-PDC, 349418-098-R-PDC, 425362-245-T-J1-PDC, 556581-035-R-J1-PDC, and BL0293-F563-PDC were received from the NCI Patient-Derived Models Repository (PDMR, https://pdmr.cancer.gov). The established cell lines HS-SY-2 (RRID:CVCL_8719), MPNST, and SYO-1 (RRID:CVCL_7146) were obtained from the Sloan Kettering Institute. The alveolar soft parts sarcoma cell line ASPS-1 (RRID:CVCL_S738) was established at the NCI and grown from internal seed stocks. The following established cell lines were purchased from the American Type Culture Collection (ATCC, Manassas, VA): G-401 (ATCC, cat. CRL-1441, RRID:CVCL_0270), SW982 (ATCC, cat. HTB-93, RRID:CVCL_1734), VA-ES-BJ (ATCC, cat. CRL-2138, RRID:CVCL_1785), NCI-H719 (ATCC, cat. CRL-5837, RRID:CVCL_1582), NCI-H196 (ATCC, cat. CRL-5823, RRID:CVCL_1509), NCI-H841 (ATCC, cat. CRL-5845, RRID:CVCL_1595), NCI-H1618 (ATCC, cat. CRL-5879, RRID:CVCL_1480), NCI-H1876 (ATCC, cat. CRL-5902, RRID:CVCL_1503), DMS 114 (ATCC, cat. CRL-2066; RRID:CVCL_1174), NCI-H211 (ATCC, cat. CRL-5824; RRID:CVCL_1529), and SW 1271 (ATCC, cat. CRL-2177, RRID:CVCL_1716). The small cell lung cancer cell line COR-L88 was purchased from Sigma-Aldrich (cat. 92031917-1VL, RRID:CVCL_1141). The non-small cell lung cancer cell lines NCI-H226 (RRID:CVCL_1544) and NCI-H322M (RRID:CVCL_1557) were established at the NCI and grown from internal seed stocks. Pooled donor human umbilical vein endothelial cells (HUVEC, Lonza, cat. CC-2519) and human mesenchymal stem cells (hMSC, Lonza, cat. PT-2501) were purchased from Lonza (Walkersville, MD).
Cell Culture. All cells were maintained in an incubator at 37 degrees C and 5% CO2 with 95% humidity. […]

[1] = compound alone, run of 12/16/2019

SMILES	viability, T/C (compound 0.0316 µM)	viability, T/C (compound 0.1 µM)	viability, T/C (compound 0.316 µM)	viability, T/C (compound 1 µM)	viability, T/C (compound 3.16 µM)	viability, T/C (compound 10 µM)	IC50 (curve of compound)	viability, T/C (compound 0.00949 µM)	viability, T/C (compound 0.03 µM)	viability, T/C (compound 0.0949 µM)	viability, T/C (compound 0.3 µM)	viability, T/C (compound 0.949 µM)	viability, T/C (compound 3 µM)	other results
CC(C)n1c(=O)n(C)c2cnc3cc(F)c(-c4ccc(OCCCN5CCCCC5)nc4)cc3c21	91.8% and 79.6% and 91.9%	62.7% and 60.5% and 86.8%	77.7% and 54.9% and 93.9%	76.7% and 57.7% and 85.2%	66.6% and 43.2% and 68.5%	23.9% and 14.7% and 17.5%	4950 nM and 1310 nM and 4790 nM							
CC1COCCN1c1cc(-c2ccnn2C)c2ccnc(-c3ccn[nH]3)c2n1 (stereo not drawn)		0.66% and 1.94% and 4.83%	0.63% and 0.89% and 0.78%	0.57% and 0.81% and 0.58%	0.43% and 0.84% and 0.58%	0.61% and 1.42% and 0.85%	< 31.6 nM							
CC[C@@]1(O)C(=O)OCc2c1cc1n(c2=O)Cc2cc3c(CN(C)C)c(O)ccc3nc2-1								12.2% [middle of 10 runs]	1.13% [middle of 10 runs]	1.05% [middle of 10 runs]	1.08% [middle of 10 runs]			IC50 (compound alone, run of 11/07/2019): 4.84 nM [middle of 4 runs]; IC50 [1]: 6.27 nM [middle of 5 runs]
CNCc1ccc(-c2cc(-c3nc(-c4ccc(S(=O)(=O)C(C)C)cc4)cnc3N)on2)cc1							22.6 nM and 34.8 nM and 53.7 nM	66.6% and 86.6% and 97.1%	44.6% and 56.7% and 86.2%	9.22% and 5.33% and 14.5%	1.18% and 1.04% and 0.87%	0.24% and 0.22% and 0.59%	0.17% and 0.19% (2×)	
COc1cc(C)[nH]c(=O)c1CN1CCc2c(Cl)cc(C(OC)C3COC3)c(Cl)c2C1=O (stereo not drawn)	98.9% and 97.3% and 103%	92.9% and 105% and 99.4%	81.8% and 93.7% and 96.8%	92.6% and 78.5% and 88.5%	87.9% and 84.4% and 87.8%	83.7% and 89.1% and 85.7%	> 10000 nM							
COc1cc2c(cc1O)CCNC21CSC2c3c(OC(C)=O)c(C)c4c(c3C(COC1=O)N1C(O)C3Cc5cc(C)c(OC)c(O)c5C(C21)N3C)OCO4 (stereo not drawn)														viability, T/C (compound 94.9 pM): 21.3% [middle of 10 runs]; viability, T/C (compound 0.0003 µM): 0.79% [middle of 8 runs]; viability, T/C (compound 0.000949 µM): 0.7% [middle of 9 runs]; viability, T/C (compound 0.003 µM): 0.13% [middle of 6 runs]; IC50 [1]: 0.0665 nM and 0.0583 nM and 0.0631 nM
COc1ccc([C@@H](O)c2cc(-c3ncnc4cc(N5CCOCC5)ccc34)c(F)cc2Cl)nn1	102% and 96.3% and 105%	100% and 102% and 109%	95.9% and 93.1% and 104%	90.3% and 101%	74.8% and 85% and 96%	11.4% and 40.7% and 40.8%	4870 nM and 7850 nM and 8300 nM							outcome (compound 1 µM): inactive
Cc1cc(C)c(CNC(=O)c2cc(-c3ccc(CN4CCOCC4)cc3)cc3c2cnn3C2CCCC2)c(=O)[nH]1	106% and 79.2% and 96.2%	102% (2×) and 89.3%	102% and 95.7% and 100%	96.7% and 87.9% and 102%	91.7% and 82.2% and 104%	52% and 33.5% and 63.2%	> 10000 nM and 6780 nM							
Cc1sc2c(c1C)C(c1ccc(Cl)cc1)=NC(CC(=O)Nc1ccc(O)cc1)c1nnc(C)n1-2 (stereo not drawn)							< 9.49 nM and 10.8 nM and 12.7 nM	22.6% and 55.5% and 64.2%	3.79% and 7.14% and 8.47%	1.01% and 1.07% and 0.73%	0.87% and 0.68% and 0.48%	0.92% and 0.62% and 0.4%	0.83% and 0.65% and 0.43%	
Cn1ncnc1[C@H]1c2n[nH]c(=O)c3cc(F)cc(c23)N[C@@H]1c1ccc(F)cc1							< 9.49 nM	1.22% and 3.94% and 1.23%	1.16% and 3.82% and 0.82%	1.19% and 4.14% and 0.91%	1.37% and 3.79% and 0.88%	1.35% and 4.02% and 0.84%	1.37% and 3.65% and 1.07%	
Cn1nnc2c(C(N)=O)ncn2c1=O				98.3% [middle of 10 runs]		92.8% [middle of 10 runs]								
O=C(c1cc(Cc2n[nH]c(=O)c3ccccc23)ccc1F)N1CCN(C(=O)C2CC2)CC1							< 94.9 nM and 224 nM and 401 nM			36% and 73% and 92.9%	30.1% and 42.2% and 63.5%	14.9% and 5.83% and 9.79%	9.02% and 1.22% and 0.8%	viability, T/C (compound 9.49 µM): 8.37% and 1.02% and 0.69%; viability, T/C (compound 30 µM): 7.89% and 0.93% and 0.73%
[2H]c1nc(C)nc([2H])c1-c1cc(NC[C@@H](C)c2cccc3c(C(=O)NC)ccnc23)ncn1	105% and 102% and 99.5%	103% and 92.2% and 90.7%	111% and 103% and 77.5%	102% and 99.2% and 90%	105% and 107% and 89.8%	103% (2×) and 97.1%	> 10000 nM							
